The values that follow are results of earlier work, collected in patent publication US20260167972A1, “AMINO ACID DERIVATIVES AS NOVEL DELIVERY AGENTS FOR FUNCTIONAL DELIVERY OF OLIGONUCLEOTIDES” (University of Rochester, priority 2022, published 2026).

Entries after “also recorded” stand apart in the source; their conditions may differ.

In the data set the test system is human A549 lung adenocarincoma cells. The note with it: cyclic peptide complexed with Rh-siRNA; compared with naked Rh-siRNA; cited from earlier work.

Consider Ac-C(FKFE)2CG-NH2, for which the Rh-siRNA cellular/cytosolic delivery entry was “improved Rh-siRNA cellular delivery compared with naked Rh-siRNA”. Regarding Ac-C(WR)4CG-NH2, the Rh-siRNA cellular/cytosolic delivery result is on record as “improved Rh-siRNA cellular delivery compared with naked Rh-siRNA; also recorded: significantly enhanced cytosolic delivery of Rh-siRNA”.
